Read-outs that look alike come from different tables or passages of the source.
How the values were obtained:
HCV NS5B = biological target: T1, HCV NS5B (Hepatitis C virus genotype 1b, UniProt Q9WMX2); assay: HCV NS5B RdRp enzyme assay (standard / modified); format: biochemical; conditions: HCV RdRp genotype 1b; standard or modified assay not specified; read-out: IC50
T1 construct: The protein was expressed with an 18 amino acid C-terminal truncation to enhance the solubility; made in house; host or cells: E. coli BL21(DE3)
Procedure: HCV NS5B RdRp cloning, expression, and purification. The cDNA encoding the NS5B protein of HCV, genotype 1b, was cloned into the pET21a expression vector. The protein was expressed with an 18 amino acid C-terminal truncation to enhance the solubility. The E. coli competent cell line BL21(DE3) was used for expression of the protein. Cultures were grown at 37° C. for ˜4 hours until the cultures reached an optical density of 2.0 at 600 nm. The cultures were cooled to 20° C. and induced with 1 mM IPTG. Fresh ampicillin was added to a final concentration of 50 μg/ml and the cells were grown overnight at 20° C.
Cell pellets (3 L) were lysed for purification to yield 15-24 mgs of purified NS5B. The lysis buffer consisted of 20 mM Tris-HCl, pH 7.4, 500 mM NaCl, 0.5% triton X-100, 1 mM DTT, 1 mM EDTA, 20% glycerol, 0.5 mg/ml lysozyme, 10 mM MgCl2, 15 ug/ml deoxyribonuclease I, and Complete TM protease inhibitor tablets (Roche). After addition of the lysis buffer, frozen cell pellets were resuspended using a tissue homogenizer. To reduce the viscosity of the sample, aliquots of the lysate were sonicated on ice using a microtip attached to a Branson sonicator. The sonicated lysate was centrifuged at 100,000×g for 1 hr at 4° C. and filtered through a 0.2 μm filter unit (Corning).
The protein was purified using two sequential chromatography steps: Heparin sepharose CL-6B and polyU sepharose 4B (Pharmacia). The chromatography buffers were identical to the lysis buffer but contained no lysozyme, deoxyribonuclease I, MgCl2 or protease inhibitor and the NaCl concentration of the buffer was adjusted according to the requirements for charging the protein onto the column. Each column was eluted with a NaCl gradient which varied in length from 5-50 column volumes depending on the column type. After the final chromatography step, the resulting purity of the enzyme is >90% based on SDS-PAGE analysis. The enzyme was aliquoted and stored at −80° C.
Standard HCV NS5B RdRp enzyme assay. HCV RdRp genotype 1b assays were run in a final volume of 60 μl in 96 well plates (Corning 3600). The assay buffer is composed of 20 mM Hepes, pH 7.5, 2.5 mM KCl, 2.5 mM MgCl2, 1 mM DTT, 1.6 U RNAse inhibitor (Promega N2515), 0.01 mg/ml BSA (Sigma B6917), and 2% glycerol. All compounds were serially diluted (3-fold) in DMSO and diluted further in water such that the final concentration of DMSO in the assay was 2%. HCV RdRp genotype 1b enzyme was used at a final concentration of 28 nM. A polyA template was used at 6 nM, and a biotinylated oligo-dT12 primer was used at 180 nM final concentration. Template was obtained commercially (Amersham 27-4110). Biotinylated primer was prepared by Sigma Genosys. 3H-UTP was used at 0.6 μCi (0.29 μM total UTP). Reactions were initiated by the addition of enzyme, incubated at 30 ° C. for 60 min, and stopped by adding 25 μl of 50 mM EDTA containing SPA beads (4 μg/μl, Amersham RPNQ 0007). Plates were read on a Packard Top Count NXT after >1 hr incubation at room temperature.
Modified HCV NS5B RdRp enzyme assay. A modified enzyme assay was performed essentially as described for the standard enzyme assay except for the following: The biotinylated oligo dT12 primer was precaptured on streptavidin-coated SPA beads by mixing primer and beads in assay buffer and incubating at room temperature for one hour. Unbound primer was removed after centrifugation. The primer-bound beads were resuspended in 20 mM Hepes buffer, pH 7.5 and used in the assay at final concentrations of 20 nM primer and 0.67 μg/μl beads. Order of addition in the assay: enzyme (1.75 nM) was added to diluted compound followed by the addition of a mixture of template (0.36 nM), 3H-UTP (0.6 μCi, 0.29 μM), and primer-bound beads, to initiate the reaction; concentrations given are final. Reactions were allowed to proceed for 4 hours at 30° C.
IC50 values for compounds were determined using seven different [I]. […]

HCV replicon cells = assay: HCV replicon FRET / luciferase assay; format: cell-based; conditions: 50% reduction in FRET or luciferase activity in HCV replicon cells, read-out: EC50
Procedure: FRET Assay Preparation. The HCV FRET screening assay was performed in 96-well cell culture plates. The FRET peptide (Anaspec, Inc.) (Taliani et al., Anal. Biochem. 1996, 240, 60-67) contains a fluorescence donor, EDANS, near one end of the peptide and an acceptor, DABCYL, near the other end. The fluorescence of the peptide is quenched by […] resonance energy transfer (RET) between the donor and the acceptor, but as the NS3 protease cleaves the peptide the products are released from RET quenching and the fluorescence of the donor becomes apparent. The assay reagent was made as follows: 5× cell Luciferase cell culture lysis reagent from Promega (#E153A) diluted to 1× with dH2O, NaCl added to 150 mM final, the FRET peptide diluted to 20 μM final from a 2 mM stock.
To prepare plates, HCV replicon cells, with or without a Renilla luciferase reporter gene, were trypsinized and plated in a 96-well plate with titrated test compounds added in columns 3 through 12; columns 1 and 2 contained a control compound (HCV control inhibitor), and the bottom row contained cells with DMSO only. The plates were then placed in a CO2 incubator at 37° C.
Assays. Subsequent to addition of the test compounds described above (FRET Assay Preparation), at various times the plate was removed and Alamar blue solution (Trek Diagnostics, #00-100) was added to measure cellular toxicity. After reading in a Cytoflour 4000 instrument (PE Biosystems), plates were rinsed with PBS and then used for FRET assay by the addition of 30 ul of the FRET peptide assay reagent described above (FRET Assay Preparation) per well. The plate was then placed into the Cytoflour 4000 instrument which had been set to 340 excite/490 emission, automatic mode for up to 20 cycles and the plate read in a kinetic mode. Typically, the signal to noise using an endpoint analysis after the reads was at least three-fold. Alternatively, after Alamar blue reading, plates were rinsed with PBS, then used for luciferase assay using the Promega Dual-Glo Luciferase Assay System or the Promega EnduRen Live Cell Substrate assay.
Compound analysis was performed by quantification of the relative HCV replicon inhibition and the relative cytotoxicity values. To calculate cytoxicity values, the average Alamar Blue fluorescence signals from the control wells were set as 100% non-toxic. The individual signals in each of the compound test wells were then divided by the average control signal and multiplied by 100% to determine […]. To calculate the HCV replicon inhibition values, an average background value was obtained from the two wells containing the highest amount of HCV control inhibitor at the end of the assay period. These numbers were similar to those obtained from naïve Huh-7 cells. The background numbers were then subtracted from the average signal obtained from the control wells and this number was used as 100% activity. The individual signals in each of the compound test wells were then divided by the averaged control values after background subtraction and multiplied by 100% to determine percent activity. EC50 values were calculated as the concentration which caused a 50% reduction in FRET or luciferase activity. The two numbers generated for the compound plate, percent cytoxicity and percent activity, were used to determine compounds of interest for further analysis.

T1 sequence (Q9WMX2 2420-2992): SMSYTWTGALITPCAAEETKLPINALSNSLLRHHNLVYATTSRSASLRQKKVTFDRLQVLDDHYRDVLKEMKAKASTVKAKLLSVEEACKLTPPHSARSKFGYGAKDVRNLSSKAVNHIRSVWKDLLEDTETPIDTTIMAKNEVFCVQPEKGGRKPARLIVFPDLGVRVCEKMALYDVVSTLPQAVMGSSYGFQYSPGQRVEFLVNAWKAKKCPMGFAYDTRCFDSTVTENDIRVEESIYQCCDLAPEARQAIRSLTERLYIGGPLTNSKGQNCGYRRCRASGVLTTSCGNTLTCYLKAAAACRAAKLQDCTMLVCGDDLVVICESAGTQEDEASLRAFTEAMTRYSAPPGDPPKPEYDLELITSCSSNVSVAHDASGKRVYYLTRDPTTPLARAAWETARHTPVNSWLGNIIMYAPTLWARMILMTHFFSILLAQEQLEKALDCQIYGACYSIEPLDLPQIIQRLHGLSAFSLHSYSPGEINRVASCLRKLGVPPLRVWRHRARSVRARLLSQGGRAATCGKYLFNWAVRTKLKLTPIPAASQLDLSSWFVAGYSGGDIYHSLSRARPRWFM

Row | SMILES | IC50 (HCV NS5B) [nM] | EC50 (HCV replicon cells; Hepatitis C virus) [nM] | EC50 (HCV replicon cells) [nM]
1 | COc1ccc2c(c1)C1CC1(C(=O)N1C3CC1CN(Cc1ccccc1)C3)Cn1c-2c(C2CCCCC2)c2ccc(C(=O)NS(=O)(=O)C3CCCCC3)cc21 (stereo not shown) | 2.4 to 500 | 500 to 5000 | 
2 | COc1ccc2c(c1)[C@@H]1C[C@]1(C(=O)N1C3CN(C)CC1CN(C(C)=O)C3)Cn1c-2c(C2CCCCC2)c2ccc(C(=O)NS(=O)(=O)N(C)C)cc21 | 2.4 to 500 | 2.4 to 500 | 
3 | COc1ccc2c(c1)C1CC1(C(=O)N1[C@@H]3C[C@H]1CN(C)C3)Cn1c-2c(C2CCCCC2)c2ccc(C(=O)NS(=O)(=O)N(C)C)cc21 (stereo partly shown) | 2.4 to 500 | 2.4 to 500 | 
4 | COc1ccc2c(c1)C1CC1(C(=O)N1[C@@H]3C[C@H]1CN(C)C3)Cn1c-2c(C2CCCCC2)c2ccc(C(=O)NS(=O)(=O)N3CCC3)cc21 (stereo partly shown) | 2.4 to 500 | 2.4 to 500 | 
5 | COc1ccc2c(c1)C1CC1(C(=O)N1C3CC1CN(Cc1ccccc1)C3)Cn1c-2c(C2CCCCC2)c2ccc(C(=O)NS(=O)(=O)C3CCC3)cc21 (stereo not shown) | 2.4 to 500 | 500 to 5000 | 
6 | COc1ccc2c(c1)C1CC1(C(=O)N1C3CCCC1CN(C)C3)Cn1c-2c(C2CCCCC2)c2ccc(C(=O)NS(=O)(=O)N3CCOCC3)cc21 (stereo not shown) | 2.4 to 500 | 2.4 to 500 | 
7 | COc1ccc2c(c1)[C@@H]1C[C@]1(C(=O)N1CCC3CCC(C1)N3C)Cn1c-2c(C2CCCCC2)c2ccc(C(=O)NS(=O)(=O)N(C)C)cc21 (stereo partly shown) | 2.4 to 500 | 2.4 to 500 | 
8 | COc1ccc2c(c1)[C@H]1C[C@@]1(C(=O)N1CC3CC1CN3C)Cn1c-2c(C2CCCCC2)c2ccc(C(=O)NS(=O)(=O)N(C)C)cc21 (stereo partly shown) | 2.4 to 500 | 2.4 to 500 | 
9 | COc1ccc2c(c1)C1CC1(C(=O)N1C3CC1CN(Cc1ccccc1)C3)Cn1c-2c(C2CCCCC2)c2ccc(C(=O)NS(=O)(=O)C3CCCC3)cc21 (stereo not shown) | 2.4 to 500 | 2.4 to 500 | 
10 | CCCS(=O)(=O)NC(=O)c1ccc2c(C3CCCCC3)c3n(c2c1)CC1(C(=O)N2C4CCCC2CN(C)C4)CC1c1cc(OC)ccc1-3 (stereo not shown) | 2.4 to 500 | 2.4 to 500 | 
11 | COc1ccc2c(c1)C1CC1(C(=O)N1[C@@H]3C[C@H]1CN(C)C3)Cn1c-2c(C2CCCCC2)c2ccc(C(=O)NS(C)(=O)=O)cc21 (stereo partly shown) | 2.4 to 500 | 2.4 to 500 | 
12 | COc1ccc2c(c1)C1CC1(C(=O)N1C3CC1CN(C)C3)Cn1c-2c(C2CCCCC2)c2ccc(C(=O)NS(=O)(=O)C3CCC3)cc21 (stereo not shown) | 2.4 to 500 | 2.4 to 500 | 
13 | CCN(C)S(=O)(=O)NC(=O)c1ccc2c(C3CCCCC3)c3n(c2c1)CC1(C(=O)N2C4CC2CN(C)C4)CC1c1cc(OC)ccc1-3 (stereo not shown) | 2.4 to 500 | 2.4 to 500 | 
14 | COc1ccc2c(c1)C1CC1(C(=O)N1CC3CCC1CN3)Cn1c-2c(C2CCCCC2)c2ccc(C(=O)NS(=O)(=O)CC(C)C)cc21 (stereo not shown) | 2.4 to 500 | > 1000 | 
15 | COc1ccc2c(c1)C1CC1(C(=O)N1C[C@@H]3C[C@H]1CN3C)Cn1c-2c(C2CCCCC2)c2ccc(C(=O)NS(=O)(=O)C3CC3)cc21 (stereo partly shown) [drawing 53] | 2.4 to 500 |  | 2.4 to 500
16 | COc1ccc2c(c1)C1CC1(S(=O)(=O)N1C3CC1CN(C)C3)Cn1c-2c(C2CCCCC2)c2ccc(C(=O)NS(=O)(=O)C3CC3)cc21 (stereo not shown) | 2.4 to 500 | 2.4 to 500 | 
17 | COc1ccc2c(c1)C1CC1(C(=O)N1C3CC1CN(Cc1ccccc1)C3)Cn1c-2c(C2CCCCC2)c2ccc(C(=O)NS(=O)(=O)C(C)C)cc21 (stereo not shown) | 2.4 to 500 | 2.4 to 500 | 
18 | COc1ccc2c(c1)C1CC1(C(=O)N1CC3CN(Cc4ccccc4)CC(C1)N3Cc1ccccc1)Cn1c-2c(C2CCCCC2)c2ccc(C(=O)NS(=O)(=O)N(C)C)cc21 (stereo not shown) | 2.4 to 500 | 500 to 5000 | 
19 | CCN1C[C@H]2C[C@@H]1CN2C(=O)C12CC1c1cc(OC)ccc1-c1c(C3CCCCC3)c3ccc(C(=O)NS(=O)(=O)C4CC4)cc3n1C2 (stereo partly shown) [drawing 43] | < 20 | 2.4 to 500 | 
20 | CCN1C[C@H]2C[C@@H]1CN2C(=O)C12CC1c1cc(OC)ccc1-c1c(C3CCCCC3)c3ccc(C(=O)NS(C)(=O)=O)cc3n1C2 (stereo partly shown) | 2.4 to 500 | 2.4 to 500 | 
21 | COc1ccc2c(c1)[C@@H]1C[C@]1(C(=O)N1[C@@H]3C[C@H]1CN(C)C3)Cn1c-2c(C2CCCCC2)c2ccc(C(=O)NS(=O)(=O)N(C)C)cc21 | 2.4 to 500 | 2.4 to 500 | 
22 | COc1ccc2c(c1)C1CC1(C(=O)N1C[C@@H]3C[C@H]1CN3C)Cn1c-2c(C2CCCCC2)c2ccc(C(=O)NS(=O)(=O)C3CC3)cc21 (stereo partly shown) [drawing 72] | < 20 | 2.4 to 500 | 
23 | COc1ccc2c(c1)C1CC1(C(=O)N1CCN3CCC1CC3)Cn1c-2c(C2CCCCC2)c2ccc(C(=O)NS(=O)(=O)N3CCC3)cc21 (stereo not shown) | 2.4 to 500 | 2.4 to 500 | 
24 | COc1ccc2c(c1)C1CC1(C(=O)N1C3CC1CN(C)C3)Cn1c-2c(C2CCCCC2)c2ccc(C(=O)NS(=O)(=O)N3CCOCC3)cc21 (stereo not shown) | 2.4 to 500 | 2.4 to 500 | 
25 | COc1ccc2c(c1)C1CC1(C(=O)N1C3CN(C)CC1CN(C)C3)Cn1c-2c(C2CCCCC2)c2ccc(C(=O)NS(=O)(=O)N(C)C)cc21 (stereo not shown) | 2.4 to 500 | 2.4 to 500 | 
26 | COc1ccc2c(c1)C1CC1(C(=O)N1C3CC1CN(C)C3)Cn1c-2c(C2CCCCC2)c2ccc(C(=O)NS(=O)(=O)CC(C)(C)C)cc21 (stereo not shown) | 2.4 to 500 | 2.4 to 500 | 
